Assay results published in patent publication US20240293430A1, “WITHAFERIN A AND IMMUNE CHECKPOINT BLOCKER COMBINATION THERAPIES” (University of South Florida, priority 2023, published 2024).

What was measured:
[1] = tested on: IFN-α mRNA in LLC and H1650 cells; assay: IFN-α qRT-PCR; type: cell-based, mouse (LLC), human (H1650)
Protocol: ROS is the main regulator of WFA-induced PD-L1 upregulation. […] All cells were treated with 0.6 μM WFA except A549, 4t1 and MDA-MB-231 cells which were treated with 4 μM, 1 μM, 2 μM WFA, respectively. […] PCR experiments were repeated twice, and one representative experiment is shown as mean±SEM of 3 technical replicates. Flow cytometry experiments were performed twice and the mean±SEM of two representative experiments is shown. Treatments were compared to the control using one-way ANOVA and Fisher LSD post hoc test. * p<0.05, ** p<0.01, *** p<0.001, **** p<0.0001.
Total cellular RNA was isolated from collected cell pellets using TRIzol reagent (Invitrogen, Waltham, MA, USA) and then quantified using the 2000 Nanodrop spectrophotometer (Thermo Fisher Scientific, Waltham, MA, USA). cDNA synthesis was performed using the Verso cDNA synthesis kit (Thermo Fisher Scientific, Waltham, MA, USA). qPCR was then performed using Forget-Me-Not EvaGreen qPCR Master Mix (Biotium, Fremont, CA, USA) in a Bio-Rad CFX384 thermocycler according to the manufacturer's instructions. The CFX Maestro software version 2.3 (Bio-Rad, Hercules, CA, USA) was used to calculate the ΔCt and ΔΔCt values and gene expression was normalized to housekeeping genes glyceraldehyde 3-phosphate dehydrogenase (GAPDH) or β-actin. […]

[2] = tested on: WI-38 lung fibroblasts and PBMCs; details: at WFA concentrations toxic to A549 NSCLC cells; cited from earlier work

## CC1=C(CO)C(=O)O[C@@H]([C@@H](C)[C@H]2CC[C@H]3[C@@H]4C[C@H]5O[C@]56[C@@H](O)C=CC(=O)[C@]6(C)[C@H]4CC[C@]23C)C1 [WFA, Withaferin A]
[1]
  IFN-α mRNA: increased
[2]
  viability of normal cells: remain viable
